Converted amounts (≈) assume the structure as drawn. Read-outs that look alike come from different tables or passages of the source.
Columns and labels:
[1] = system: S. aureus Smith mutant containing the S486L mutation in RpoB; test: Mouse septicemia model, S. aureus Smith RpoB S486L; assay type: in vivo; conditions: 1.4 × 10^7 CFU/mouse, three days
Experimental: (§1) Antimicrobial compounds may also be screened in vivo using a mouse septicemia model. In one particular example, mice were inoculated with an S. aureus Smith strain (Weiss) encoding a mutated microbial polypeptide (e.g., a mutated RpoB). Compounds were administered either IV or orally 30 minutes following inoculation, and observations was continued for three days. Compounds that promoted the survival of inoculated mice were identified as being compounds that are effective against antibiotic-resistant forms of S. aureus.
(§2) This was accounted for by the increased MIC against these mutant strains compared with the wild-type strain (MICs of 2 μg/ml and 0.004-0.008 μg/ml, respectively).

[2] = system: S. aureus Smith containing the RpoB H481Y alteration; test: Mouse septicemia model, S. aureus Smith RpoB H481Y; assay type: in vivo; conditions: for Survival (n = 5): mouse, 1.1 × 10^7 CFU/mouse, three days
Experimental: as §1, §2

[3] = system: S. aureus Smith mutant containing the L466S mutation in RpoB; test: Mouse septicemia model, S. aureus Smith RpoB L466S; assay type: in vivo; conditions: 1.1 × 10^7 CFU/mouse, three days
Experimental: as §1, §2

[4] = system: S. aureus RpoB mutant R484C; test: MIC, S. aureus RpoB R484C mutant; assay type: cell-based; conditions: Staphylococcus aureus; RpoB mutation R484C; strain background 3
Excerpt: (§3) S. aureus is one of the most frequently encountered Gram-positive pathogens. Drug resistance-conferring mutations typically occur within the β subunit of RNA polymerase (RpoB mutations), in the rifampin-binding site. Mutants of S. aureus were isolated by inoculating a culture of S. aureus ATCC strain 29213 (standard susceptibility testing strain) into medium containing rifampin or rifalazil; by inoculating S. aureus ATCC strain 29213 into medium containing chemical derivatives of rifamycin (NCEs); by inoculating S. aureus Smith, a variant optimally adapted to colonizing and causing disease in the mouse septicemia model, into medium containing rifampin; and by using the Ian Chopra collection, the parent strain of which is S. aureus 8325-4 and described previously by Oliva et al. (Antimicrob. Agents Chemother. 45:532-9, 2001). […]
(§4) Having identified these mutants, the minimum inhibitory concentrations (MIC) of a number of rifamycin derivatives were determined in microtiter trays by inoculating 1-8×10^4 microorganisms in 100 μl of Mueller-Hinton Broth (cation adjusted) containing the indicated compound (Table 3) (National Committee for Clinical Laboratory Standards, Methods for Dilution Antimicrobial Susceptibility Tests for Bacteria That Grow Aerobically-Fourth Edition: Approved Standard M7-A4. NCCLS, Villanova, Pa., 1997). […]

[5] = system: S. aureus RpoB mutant D471V; test: MIC, S. aureus RpoB D471V mutant; assay type: cell-based; conditions: Staphylococcus aureus; RpoB mutation D471V; strain background 3
Excerpt: as §3, §4

[6] = system: S. aureus RpoB mutant I527M; test: MIC, S. aureus RpoB I527M mutant; assay type: cell-based; conditions: Staphylococcus aureus; RpoB mutation I527M; strain background 1
Excerpt: as §3, §4

[7] = system: S. aureus RpoB mutant H481D; test: MIC, S. aureus RpoB H481D mutant; assay type: cell-based; conditions: Staphylococcus aureus; RpoB mutation H481D; strain backgrounds 1, 4
Excerpt: as §3, §4

[8] = system: S. aureus RpoB mutant H481N; test: MIC, S. aureus RpoB H481N mutant; assay type: cell-based; conditions: Staphylococcus aureus; RpoB mutation H481N; strain backgrounds 1, 4
Excerpt: as §3, §4

[9] = system: S. aureus RpoB mutant S486L; test: MIC, S. aureus RpoB S486L mutant; assay type: cell-based; conditions: Staphylococcus aureus; RpoB mutation S486L; strain backgrounds 1, 2, 4
Excerpt: as §3, §4

[10] = system: S. aureus RpoB mutant A477D; test: MIC, S. aureus RpoB A477D mutant; assay type: cell-based; conditions: Staphylococcus aureus; RpoB mutation A477D; strain backgrounds 1, 4
Excerpt: as §3, §4

[11] = system: S. aureus RpoB mutant H481Y; test: MIC, S. aureus RpoB H481Y mutant; assay type: cell-based; conditions: Staphylococcus aureus; RpoB mutation H481Y; strain backgrounds 1, 2, 3
Excerpt: as §3, §4

[12] = system: S. aureus RpoB mutant L466S; test: MIC, S. aureus RpoB L466S mutant; assay type: cell-based; conditions: Staphylococcus aureus; RpoB mutation L466S; strain backgrounds 1, 2, 4
Excerpt: as §3, §4

[13] = system: S. aureus RpoB mutant H481R; test: MIC, S. aureus RpoB H481R mutant; assay type: cell-based; conditions: Staphylococcus aureus; RpoB mutation H481R; strain background 3
Excerpt: as §3, §4

[14] = system: S. aureus RpoB mutant S464P; test: MIC, S. aureus RpoB S464P mutant; assay type: cell-based; conditions: Staphylococcus aureus; RpoB mutation S464P; strain backgrounds 1, 2, 4
Excerpt: as §3, §4

[15] = system: S. aureus RpoB mutant Q137L; test: MIC, S. aureus RpoB Q137L mutant; assay type: cell-based; conditions: Staphylococcus aureus; RpoB mutation Q137L; strain backgrounds 1, 4
Excerpt: as §3, §4

[16] = system: S. aureus RpoB mutant Q468R; test: MIC, S. aureus RpoB Q468R mutant; assay type: cell-based; conditions: Staphylococcus aureus; RpoB mutation Q468R; strain background 1
Excerpt: as §3, §4

[17] = system: S. aureus RpoB mutant A477V; test: MIC, S. aureus RpoB A477V mutant; assay type: cell-based; conditions: Staphylococcus aureus; RpoB mutation A477V; strain backgrounds 1, 2
Excerpt: as §3, §4

[18] = system: S. aureus RpoB mutant D471Y; test: MIC, S. aureus RpoB D471Y mutant; assay type: cell-based; conditions: Staphylococcus aureus; RpoB mutation D471Y; strain backgrounds 1, 2, 4
Excerpt: as §3, §4

[19] = system: S. aureus RpoB mutant R484H; test: MIC, S. aureus RpoB R484H mutant; assay type: cell-based; conditions: Staphylococcus aureus; RpoB mutation R484H; strain backgrounds 1, 3
Excerpt: as §3, §4

[20] = system: S. aureus RpoB mutant I527P; test: MIC, S. aureus RpoB I527P mutant; assay type: cell-based; conditions: Staphylococcus aureus; RpoB mutation I527P; strain background 1
Excerpt: as §3, §4

S. aureus 29213 = test: Mutant score test (resistance development on agar); assay type: cell-based; conditions: 10^9 cells of S. aureus 29213 on agar plate with 1 μg/ml compound
Experimental: A further confirmation of the validity of MIC testing of the mutant panel was provided by our mutant score test. Using this strategy, compounds were individually tested for resistance development by inoculating 10^9 cells of S. aureus 29213, a standard susceptibility strain, onto a large agar plate (150 mm) containing Mueller Hinton Agar as well as 1 μg/ml of the test compound. The presence of rifalazil or rifampin in these plates generally allowed for the growth of ˜50 colonies, all colonies representing a mutant sub-population or populations in the culture. […] The MICs of NCEs on agar plates were lower than MICs determined by growth in liquid broth. […] This correlation provided additional confidence in the value and ranking of compounds by MIC testing of the mutant panel, as compounds having a score of 2 have tracked with strong activity in MIC testing against resistant strains, as indicated in Table 3.

[21] = system: S. aureus RpoB mutant D471G; test: MIC, S. aureus RpoB D471G mutant; assay type: cell-based; conditions: Staphylococcus aureus; RpoB mutation D471G; strain backgrounds 1, 2
Excerpt: as §3, §4

[22] = system: Wild-type parent strains (S. aureus 29213, Smith, W59536, 8325-4); test: MIC, wild-type parent S. aureus strains; assay type: cell-based
Excerpt: S. aureus is one of the most frequently encountered Gram-positive pathogens. Drug resistance-conferring mutations typically occur within the β subunit of RNA polymerase (RpoB mutations), in the rifampin-binding site. Mutants of S. aureus were isolated by inoculating a culture of S. aureus ATCC strain 29213 (standard susceptibility testing strain) into medium containing rifampin or rifalazil; by inoculating S. aureus ATCC strain 29213 into medium containing chemical derivatives of rifamycin (NCEs); by inoculating S. aureus Smith, a variant optimally adapted to colonizing and causing disease in the mouse septicemia model, into medium containing rifampin; and by using the Ian Chopra collection, the parent strain of which is S. aureus 8325-4 and described previously by Oliva et al. (Antimicrob. Agents Chemother. 45:532-9, 2001). Mutants resistant to rifampin, rifalazil, or NCEs were selected either on drug-containing plates or in liquid culture.
Having identified these mutants, the minimum inhibitory concentrations (MIC) of a number of rifamycin derivatives were determined in microtiter trays by inoculating 1-8×10^4 microorganisms in 100 μl of Mueller-Hinton Broth (cation adjusted) containing the indicated compound (Table 3) (National Committee for Clinical Laboratory Standards, Methods for Dilution Antimicrobial Susceptibility Tests for Bacteria That Grow Aerobically-Fourth Edition: Approved Standard M7-A4. NCCLS, Villanova, Pa., 1997). These cultures were incubated for 16-20 hours at 35° C. Based on our results, the most important mutants (conferring the strongest resistance) were identified for more extensive testing of NCEs. These mutants were H481Y, Q468K, S486L, D471Y, S464P, A477D, and H481D. […] An exception to the uniformity of the measure of resistance is provided by the mutants D471Y and S464P, which together have lower MICs for some of the compounds compared to the rest. […]

[23] = system: S. aureus RpoB mutant Q468K; test: MIC, S. aureus RpoB Q468K mutant; assay type: cell-based; conditions: Staphylococcus aureus; RpoB mutation Q468K; strain background 1
Excerpt: as §3, §4

[24] = system: S. aureus RpoB mutant R484S; test: MIC, S. aureus RpoB R484S mutant; assay type: cell-based; conditions: Staphylococcus aureus; RpoB mutation R484S; strain background 1
Excerpt: as §3, §4

[25] = system: S. aureus RpoB mutant D471E; test: MIC, S. aureus RpoB D471E mutant; assay type: cell-based; conditions: Staphylococcus aureus; RpoB mutation D471E; strain background 4
Excerpt: as §3, §4

Structure (SMILES)	Survival (n = 5) ([1]; IV 6.0 mg/kg)	Survival (n = 5) ([2]; IV 6.0 mg/kg)	Survival (n = 5) ([3]; IV 6.0 mg/kg)	MIC [4] [µg/mL]	MIC [5] [µg/mL]	MIC [6] [µg/mL]	MIC [7] [µg/mL]	MIC [8] [µg/mL]	MIC [9] [µg/mL]	MIC [10] [µg/mL]	MIC [11] [µg/mL]	MIC [12] [µg/mL]	MIC [13] [µg/mL]	MIC [14] [µg/mL]	MIC [15] [µg/mL]	MIC [16] [µg/mL]	MIC [17] [µg/mL]	MIC [18] [µg/mL]	MIC [19] [µg/mL]	MIC [20] [µg/mL]	also measured
O=C(O)c1cn(C2CC2)c2cc(N3CCNCC3)c(F)cc2c1=O [Ciprofloxacin]	5	4	5																		Survival (n = 5) ([1]; IV 0.6 mg/kg): 1; Survival (n = 5) ([1]; IV 2.0 mg/kg): 3; Survival (n = 5) ([2]; IV 0.6 mg/kg): 2; Survival (n = 5) ([2]; IV 2.0 mg/kg): 5; Survival (n = 5) ([3]; IV 0.6 mg/kg): 1; Survival (n = 5) ([3]; IV 2.0 mg/kg): 4
CO[C@H]1/C=C/O[C@@]2(C)Oc3c(C)c(O)c4c(=O)c(c5oc6cc(N7CCN(CC(C)C)CC7)cc(O)c6nc-5c4c3C2=O)NC(=O)/C(C)=C\C=C\[C@H](C)[C@H](O)[C@@H](C)[C@@H](O)[C@@H](C)[C@H](OC(C)=O)[C@@H]1C [Rfz, rifalazil]				0.5 (≈ 0.531 µM)	2 (≈ 2.13 µM)	0.063 (≈ 0.0669 µM)	> 8	0.125 (≈ 0.133 µM)	> 8	2 to 4 (≈ 2.13 to 4.25 µM)	> 8	0.016 (≈ 0.017 µM)	> 8	1 (≈ 1.06 µM)	< 0.031	> 8	0.063 (≈ 0.0669 µM)	0.25 (≈ 0.266 µM)	8 (≈ 8.5 µM)	1 (≈ 1.06 µM)	growth of mutant colonies on plate (S. aureus 29213): ~50 colonies; MIC [21]: > 8 µg/mL; MIC ([22]; Mutation None: wild-type parent strains): 0.015 µg/mL (≈ 0.0159 µM); MIC ([22]; Staphylococcus aureus, strain not stated, matches wild-type value of Table 2, read-out: MIC): 0.015 µg/mL (≈ 0.0159 µM); MIC [23]: > 8 µg/mL; MIC [24]: 0.5 µg/mL (≈ 0.531 µM); MIC [25]: < 0.031 µg/mL
CO[C@H]1/C=C/O[C@@]2(C)Oc3c(C)c(O)c4c(O)c(c(/C=N/N5CCN(C)CC5)c(O)c4c3C2=O)NC(=O)/C(C)=C\C=C\[C@H](C)[C@H](O)[C@@H](C)[C@@H](O)[C@@H](C)[C@H](OC(C)=O)[C@@H]1C [Rifampicin, rifampin]	0	0	0	2 (≈ 2.43 µM)	> 8	0.25 (≈ 0.304 µM)	> 8	2 (≈ 2.43 µM)	> 8	> 8	> 8	0.25 (≈ 0.304 µM)	> 8	> 8	0.25 (≈ 0.304 µM)	> 8	1 (≈ 1.22 µM)	1 (≈ 1.22 µM)	> 8	4 (≈ 4.86 µM)	Survival (n = 5) ([1]; IV 20.0 mg/kg): 1; efficacy against mutant strains in vivo ([2]; mouse septicemia model, mutant strains in general): failed to be effective; Survival (n = 5) ([2]; IV 20.0 mg/kg): 0; Survival (n = 5) ([2]; oral 200.0 mg/kg): 0; growth of mutant colonies on plate (S. aureus 29213): ~50 colonies; Survival (n = 5) ([3]; IV 20.0 mg/kg): 0; MIC [21]: > 8 µg/mL; MIC ([22]; Staphylococcus aureus, Mutation None: wild-type parent strains, read-out: MIC): 0.015 µg/mL (≈ 0.0182 µM); MIC [23]: > 8 µg/mL; MIC [24]: 8 µg/mL (≈ 9.72 µM); MIC [25]: 0.25 µg/mL (≈ 0.304 µM)
